Test results reported in ChEMBL document CHEMBL1140045, “Crystal structures of rat vitamin D receptor bound to adamantyl vitamin D analogs: structural basis for vitamin D receptor antagonism and partial agonism” (J Med Chem, 2008).
The source made the active and inactive calls. The rule behind the calls is not given here.

Legend:
Vitamin D3 receptor [1] = target: T1, Vitamin D3 receptor (Homo sapiens, UniProt P11473); assay: Agonist activity at VDR assessed as receptor transactivation by transient transcription assay; format: functional
T1 sequence (P11473 whole entry): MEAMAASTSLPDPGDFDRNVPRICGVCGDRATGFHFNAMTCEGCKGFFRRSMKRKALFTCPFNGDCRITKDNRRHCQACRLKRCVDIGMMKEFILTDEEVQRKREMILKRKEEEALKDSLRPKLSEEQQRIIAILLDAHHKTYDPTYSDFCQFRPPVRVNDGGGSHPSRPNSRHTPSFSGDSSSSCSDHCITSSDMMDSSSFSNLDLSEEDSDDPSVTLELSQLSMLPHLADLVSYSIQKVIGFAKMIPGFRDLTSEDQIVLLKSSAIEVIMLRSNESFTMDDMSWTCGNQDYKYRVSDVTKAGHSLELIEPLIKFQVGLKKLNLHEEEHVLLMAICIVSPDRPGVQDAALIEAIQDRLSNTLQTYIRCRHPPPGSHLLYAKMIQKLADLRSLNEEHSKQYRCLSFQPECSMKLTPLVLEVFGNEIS

[2] = target: T2, Vitamin D3 receptor (Homo sapiens) (UniProt P11473); assay: Binding affinity to VDR relative to 1,25-Dihydroxyvitamin D3
T2 sequence (whole entry): T1 sequence (P11473 whole entry)

[3] = target: T2, Vitamin D3 receptor (Homo sapiens); assay: Agonist activity at VDR assessed as receptor transactivation by transient transcription assay relative to 1,25-Dihydroxyvitamin D3; format: functional
Vitamin D3 receptor [4] = target: T1, Vitamin D3 receptor; assay: Antagonist activity at VDR expressed in COS7 cells assessed as inhibition of 1,25-Dihydroxyvitamin D3-induced response by transient transcription assay; format: functional, cell-based, COS-7

EC50 (Vitamin D3 receptor [1])	Activity [2]	Activity [3]	IC50 (Vitamin D3 receptor [4])	SMILES
24 nM	Active	10%	–	C=C1[C@H](O)CC(=C/C=C2\CCC[C@]3(C)[C@@H]([C@@H](C)/C=C/C[C@@H](O)CC45CC6CC(CC(C6)C4)C5)CC[C@@H]23)C[C@H]1O
1 nM	75%	15%	3 nM	C=C1[C@H](O)CC(=C/C=C2\CCC[C@]3(C)[C@@H]([C@@H](C)/C=C/C[C@@H](O)C45CC6CC(CC(C6)C4)C5)CC[C@@H]23)C[C@H]1O
0.02 nM	20%	74%	–	C=C1[C@H](O)CC(=C/C=C2\CCC[C@]3(C)[C@@H]([C@H](C)/C=C/[C@@H](O)C45CC6CC(CC(C6)C4)C5)CC[C@@H]23)C[C@H]1O
